Source: ChEMBL document CHEMBL1201862, “PubChem BioAssay data set” (2004)
Active and inactive are the calls of the source.

What was measured:
[1] = molecular target: T1, Eukaryotic translation initiation factor 2-alpha kinase 3 (Homo sapiens, UniProt Q9NZJ5); test: Counterscreen assay for PERK inhibitors: Dose response cell-based high throughput screening assay to measure inhibition of PERK at 6 hours. [Related pubchem assays: 1522, 1416 ]; assay type: functional
[2] = molecular target: T1, Eukaryotic translation initiation factor 2-alpha kinase 3; test: Dose response cell-based high-throughput screening assay to measure PERK inhibition. [Related pubchem assays: 1416 ]; assay type: functional
[3] = HepG2 cell cytotoxicity, dose response, cytotoxicity control for Shn3 inhibitor project, CellTiter-Glo, cherry-picked (AID 624134); assay type: functional, cell-based
[4] = nonselective inhibitors of cellular cAMP signaling, dose response, counter-screen for MC4R biased antagonist project, cell-based, TR-FRET cAMP detection (AID 602305); assay type: functional;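 also: U2OS cells stimulated with forskolin near its EC80 as the cAMP inducer; potency is for inhibition of forskolin-stimulated cAMP signaling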
[5] = cytotoxicity in KRAS-transformed pancreatic duct cells, primary screen, cell-based, fluorescence, HTS (AID 431); assay type: functional; details: Homo sapiens;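 also: cell line used: HPDE-C7K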
Melanocortin receptor 4 = Melanocortin receptor 4 (Homo sapiens, UniProt P32245); test: MC4R antagonist potency on cAMP, dose response, cell-based, TR-FRET, biased antagonists (AID 602298); assay type: functional;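 also: antagonist potency against agonist-stimulated cAMP production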
Hexokinase HKDC1 = Hexokinase HKDC1 (Homo sapiens, UniProt Q2TB90); test: HKDC1 hexokinase inhibitors, dose response, biochemical, W721R variant (AID 504729); assay type: functional
[6] = THP-1 cell cytotoxicity, dose response, cytotoxicity control for non-replicating M. tuberculosis project (AID 489025); assay type: functional
[7] = HepG2 cell cytotoxicity, dose response, cytotoxicity control for non-replicating M. tuberculosis project (AID 489018); assay type: functional; details: Mycobacterium tuberculosis
[8] = Shn3 3'UTR reporter inhibitors, dose response, cell-based, Clone20 osteoblasts, firefly luciferase, cherry-picked (AID 624132); assay type: functional;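 also: firefly luciferase luminescence from reporter carrying the Shn3 3'UTR in osteoblasts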
Estrogen receptor = molecular target: T2, Estrogen receptor (Homo sapiens, UniProt P03372); test: potentiators of ERα–SRC-1 coactivator binding, dose response, biochemical, TR-FRET, ERα LBD (AID 737)
T2 sequence (P03372 whole entry): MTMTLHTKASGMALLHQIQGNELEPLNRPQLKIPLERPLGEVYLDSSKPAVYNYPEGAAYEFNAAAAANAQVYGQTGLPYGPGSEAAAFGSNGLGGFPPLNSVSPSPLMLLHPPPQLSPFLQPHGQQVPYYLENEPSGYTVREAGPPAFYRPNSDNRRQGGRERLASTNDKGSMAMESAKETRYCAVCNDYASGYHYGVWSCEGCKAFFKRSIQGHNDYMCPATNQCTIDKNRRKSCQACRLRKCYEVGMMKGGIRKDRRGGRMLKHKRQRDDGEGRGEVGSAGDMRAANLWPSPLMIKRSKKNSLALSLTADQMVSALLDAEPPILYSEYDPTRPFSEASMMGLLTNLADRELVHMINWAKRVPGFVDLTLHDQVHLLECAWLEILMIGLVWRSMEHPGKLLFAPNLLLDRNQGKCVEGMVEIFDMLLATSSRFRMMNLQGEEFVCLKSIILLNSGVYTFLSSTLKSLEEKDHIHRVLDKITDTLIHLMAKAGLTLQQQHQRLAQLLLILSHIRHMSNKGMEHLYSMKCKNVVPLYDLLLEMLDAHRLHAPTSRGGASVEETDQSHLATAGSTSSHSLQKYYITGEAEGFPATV

[9] = cytotoxicity in HPDE-C7 cells, cell-based, fluorescence, HTS (AID 430); assay type: functional; details: Homo sapiens
cells = assay type: functional
[10] = molecular target: T3, Mannose-6-phosphate isomerase (Homo sapiens, UniProt P34949); test: human PMI inhibitors, high substrate, primary screen, biochemical, fluorescence intensity, high mannose 6-phosphate (AID 1220)
T3 sequence (P34949 whole entry): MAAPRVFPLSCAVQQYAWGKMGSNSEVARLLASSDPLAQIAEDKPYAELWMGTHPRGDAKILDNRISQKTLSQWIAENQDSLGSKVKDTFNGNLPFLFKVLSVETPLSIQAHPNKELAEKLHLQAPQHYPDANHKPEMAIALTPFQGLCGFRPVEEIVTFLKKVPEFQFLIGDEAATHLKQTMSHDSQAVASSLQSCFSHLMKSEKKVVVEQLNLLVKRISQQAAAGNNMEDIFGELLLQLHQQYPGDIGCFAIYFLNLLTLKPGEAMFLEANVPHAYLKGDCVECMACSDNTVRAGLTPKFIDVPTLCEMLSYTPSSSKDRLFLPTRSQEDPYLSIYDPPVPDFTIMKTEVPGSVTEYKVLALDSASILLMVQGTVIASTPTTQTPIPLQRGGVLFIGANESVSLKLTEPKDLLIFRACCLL

Aspartyl aminopeptidase = Aspartyl aminopeptidase (Plasmodium falciparum 3D7, UniProt Q8I2J3)
[11] = molecular target: Dual specificity tyrosine-phosphorylation-regulated kinase 1A (Rattus norvegicus, UniProt Q63470); assay type: biochemical, Homo sapiens
[12] = molecular target: T3, Mannose-6-phosphate isomerase; test: inhibitors of human PMI, primary screen, biochemical, fluorescence intensity, coupled assay (AID 1209)
Bcl-2-like protein 1 = Bcl-2-like protein 1 (Homo sapiens, UniProt Q07817); test: BCL-XL inhibitors, dose response, selectivity assay for MCL1 inhibitor project, biochemical, fluorescence polarization, 1536-well (AID 2218)
Procathepsin L = Procathepsin L (Homo sapiens, UniProt P07711)
[13] = molecular target: Induced myeloid leukemia cell differentiation protein Mcl-1 (Homo sapiens, UniProt Q07820); test: MCL1-BIM BH3 interaction inhibitors, dose response, biochemical, fluorescence polarization, BIM-BH3 peptide, 1536-well (AID 2217)
Large T antigen = Large T antigen (Simian virus 40, UniProt P03070); assay type: functional, Betapolyomavirus macacae;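 also: Confirmatory-stage PubChem screen for compounds that inhibit SV40 T antigen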
[14] = molecular target: T4, Rac GTPase-activating protein 1 (Homo sapiens, UniProt Q9H0H5); test: MgcRacGAP GTPase-activating activity inhibitors, confirmation, biochemical, ADP Hunter fluorescence, primary and confirmatory (AID 624330); assay type: functional
T4 sequence (Q9H0H5 whole entry): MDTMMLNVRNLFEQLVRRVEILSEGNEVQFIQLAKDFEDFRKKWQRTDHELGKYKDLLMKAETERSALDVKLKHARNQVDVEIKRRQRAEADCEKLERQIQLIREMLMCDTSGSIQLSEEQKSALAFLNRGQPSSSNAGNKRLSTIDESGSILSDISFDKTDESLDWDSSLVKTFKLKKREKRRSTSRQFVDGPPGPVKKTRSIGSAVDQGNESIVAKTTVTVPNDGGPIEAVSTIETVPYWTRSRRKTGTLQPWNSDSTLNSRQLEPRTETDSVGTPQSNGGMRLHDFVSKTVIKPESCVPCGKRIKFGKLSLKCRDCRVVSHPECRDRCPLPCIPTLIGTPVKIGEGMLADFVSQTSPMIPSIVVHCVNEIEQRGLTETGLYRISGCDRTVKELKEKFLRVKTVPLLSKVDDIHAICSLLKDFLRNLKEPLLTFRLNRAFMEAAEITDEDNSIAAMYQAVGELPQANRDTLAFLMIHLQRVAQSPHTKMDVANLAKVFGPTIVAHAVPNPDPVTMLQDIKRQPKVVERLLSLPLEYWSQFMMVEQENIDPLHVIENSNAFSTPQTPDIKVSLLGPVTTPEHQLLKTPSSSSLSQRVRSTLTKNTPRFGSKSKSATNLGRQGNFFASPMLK

[15] = molecular target: T5, Histone-lysine N-methyltransferase NSD2 (Homo sapiens, UniProt O96028); assay type: biochemical
T5 sequence (O96028 whole entry): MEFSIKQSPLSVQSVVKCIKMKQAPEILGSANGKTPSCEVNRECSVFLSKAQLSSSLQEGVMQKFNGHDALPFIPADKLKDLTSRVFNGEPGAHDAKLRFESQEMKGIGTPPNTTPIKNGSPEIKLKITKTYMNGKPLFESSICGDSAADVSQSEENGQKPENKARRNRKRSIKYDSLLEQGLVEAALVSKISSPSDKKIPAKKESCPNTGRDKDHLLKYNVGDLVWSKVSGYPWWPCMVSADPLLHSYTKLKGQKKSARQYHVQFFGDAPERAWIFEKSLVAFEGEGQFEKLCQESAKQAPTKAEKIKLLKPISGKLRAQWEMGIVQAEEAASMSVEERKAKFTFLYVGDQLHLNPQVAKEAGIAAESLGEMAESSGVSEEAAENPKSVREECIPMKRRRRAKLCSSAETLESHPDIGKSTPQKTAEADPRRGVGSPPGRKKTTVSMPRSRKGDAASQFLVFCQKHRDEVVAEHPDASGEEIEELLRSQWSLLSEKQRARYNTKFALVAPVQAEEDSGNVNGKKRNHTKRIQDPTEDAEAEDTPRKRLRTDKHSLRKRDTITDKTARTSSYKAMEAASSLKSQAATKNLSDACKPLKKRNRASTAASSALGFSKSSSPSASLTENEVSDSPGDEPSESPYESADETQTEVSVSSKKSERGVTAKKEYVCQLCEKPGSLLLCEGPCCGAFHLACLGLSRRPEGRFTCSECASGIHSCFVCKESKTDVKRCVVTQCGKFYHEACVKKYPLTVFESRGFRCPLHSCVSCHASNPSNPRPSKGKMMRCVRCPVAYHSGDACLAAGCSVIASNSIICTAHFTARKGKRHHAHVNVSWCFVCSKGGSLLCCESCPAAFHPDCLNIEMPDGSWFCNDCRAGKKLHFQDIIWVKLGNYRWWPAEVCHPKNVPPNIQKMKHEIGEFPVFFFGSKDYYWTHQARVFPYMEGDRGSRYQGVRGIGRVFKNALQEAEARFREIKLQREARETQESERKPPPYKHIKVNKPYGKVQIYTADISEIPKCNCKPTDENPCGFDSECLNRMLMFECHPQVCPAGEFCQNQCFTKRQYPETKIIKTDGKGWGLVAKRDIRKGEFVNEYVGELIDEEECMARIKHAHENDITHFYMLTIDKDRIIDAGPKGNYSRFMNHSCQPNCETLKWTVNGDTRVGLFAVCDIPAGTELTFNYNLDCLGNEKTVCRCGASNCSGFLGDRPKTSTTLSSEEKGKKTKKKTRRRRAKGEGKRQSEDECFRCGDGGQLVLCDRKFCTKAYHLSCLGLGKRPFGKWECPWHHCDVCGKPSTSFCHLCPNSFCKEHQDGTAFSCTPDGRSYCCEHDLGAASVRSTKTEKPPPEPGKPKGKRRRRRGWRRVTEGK

T1 sequence (Q9NZJ5 whole entry): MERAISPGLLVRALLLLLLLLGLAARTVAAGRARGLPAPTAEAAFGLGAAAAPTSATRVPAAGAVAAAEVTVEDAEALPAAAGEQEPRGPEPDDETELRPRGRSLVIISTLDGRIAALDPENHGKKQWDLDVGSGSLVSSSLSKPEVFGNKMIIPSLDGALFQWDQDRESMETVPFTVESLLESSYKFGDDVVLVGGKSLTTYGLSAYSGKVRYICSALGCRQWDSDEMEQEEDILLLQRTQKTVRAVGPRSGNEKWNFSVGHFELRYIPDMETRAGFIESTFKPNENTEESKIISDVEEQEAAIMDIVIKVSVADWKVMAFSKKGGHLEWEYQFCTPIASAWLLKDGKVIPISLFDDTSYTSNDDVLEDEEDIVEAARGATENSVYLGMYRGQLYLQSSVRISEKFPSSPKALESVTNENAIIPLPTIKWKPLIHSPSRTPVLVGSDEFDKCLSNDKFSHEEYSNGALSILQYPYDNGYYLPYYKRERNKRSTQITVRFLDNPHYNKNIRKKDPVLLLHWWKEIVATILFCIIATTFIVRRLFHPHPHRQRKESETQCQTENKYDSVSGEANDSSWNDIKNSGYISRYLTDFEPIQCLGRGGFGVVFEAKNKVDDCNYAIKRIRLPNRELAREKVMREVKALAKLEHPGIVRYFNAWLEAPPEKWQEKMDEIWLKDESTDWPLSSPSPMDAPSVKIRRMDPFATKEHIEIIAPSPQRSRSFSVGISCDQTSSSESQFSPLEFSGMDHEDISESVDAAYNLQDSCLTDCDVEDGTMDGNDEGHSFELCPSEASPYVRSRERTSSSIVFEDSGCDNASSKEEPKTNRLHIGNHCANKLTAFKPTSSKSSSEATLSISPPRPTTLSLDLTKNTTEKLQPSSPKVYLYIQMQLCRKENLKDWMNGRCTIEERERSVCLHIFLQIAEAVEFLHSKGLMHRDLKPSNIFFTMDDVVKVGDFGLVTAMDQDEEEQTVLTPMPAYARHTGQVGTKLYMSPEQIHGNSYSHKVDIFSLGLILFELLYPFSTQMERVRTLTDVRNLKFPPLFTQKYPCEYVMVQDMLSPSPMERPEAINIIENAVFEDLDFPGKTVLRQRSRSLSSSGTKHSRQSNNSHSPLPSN
Melanocortin receptor 4, sequence (P32245 whole entry): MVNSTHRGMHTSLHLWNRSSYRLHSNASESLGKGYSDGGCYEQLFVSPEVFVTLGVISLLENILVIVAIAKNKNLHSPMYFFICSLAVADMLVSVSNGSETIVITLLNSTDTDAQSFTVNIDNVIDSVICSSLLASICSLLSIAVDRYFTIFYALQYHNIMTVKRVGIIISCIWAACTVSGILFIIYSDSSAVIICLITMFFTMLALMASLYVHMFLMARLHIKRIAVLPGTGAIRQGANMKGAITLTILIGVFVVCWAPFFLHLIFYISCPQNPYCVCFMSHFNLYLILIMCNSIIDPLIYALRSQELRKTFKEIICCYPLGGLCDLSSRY
Hexokinase HKDC1, sequence (Q2TB90 whole entry): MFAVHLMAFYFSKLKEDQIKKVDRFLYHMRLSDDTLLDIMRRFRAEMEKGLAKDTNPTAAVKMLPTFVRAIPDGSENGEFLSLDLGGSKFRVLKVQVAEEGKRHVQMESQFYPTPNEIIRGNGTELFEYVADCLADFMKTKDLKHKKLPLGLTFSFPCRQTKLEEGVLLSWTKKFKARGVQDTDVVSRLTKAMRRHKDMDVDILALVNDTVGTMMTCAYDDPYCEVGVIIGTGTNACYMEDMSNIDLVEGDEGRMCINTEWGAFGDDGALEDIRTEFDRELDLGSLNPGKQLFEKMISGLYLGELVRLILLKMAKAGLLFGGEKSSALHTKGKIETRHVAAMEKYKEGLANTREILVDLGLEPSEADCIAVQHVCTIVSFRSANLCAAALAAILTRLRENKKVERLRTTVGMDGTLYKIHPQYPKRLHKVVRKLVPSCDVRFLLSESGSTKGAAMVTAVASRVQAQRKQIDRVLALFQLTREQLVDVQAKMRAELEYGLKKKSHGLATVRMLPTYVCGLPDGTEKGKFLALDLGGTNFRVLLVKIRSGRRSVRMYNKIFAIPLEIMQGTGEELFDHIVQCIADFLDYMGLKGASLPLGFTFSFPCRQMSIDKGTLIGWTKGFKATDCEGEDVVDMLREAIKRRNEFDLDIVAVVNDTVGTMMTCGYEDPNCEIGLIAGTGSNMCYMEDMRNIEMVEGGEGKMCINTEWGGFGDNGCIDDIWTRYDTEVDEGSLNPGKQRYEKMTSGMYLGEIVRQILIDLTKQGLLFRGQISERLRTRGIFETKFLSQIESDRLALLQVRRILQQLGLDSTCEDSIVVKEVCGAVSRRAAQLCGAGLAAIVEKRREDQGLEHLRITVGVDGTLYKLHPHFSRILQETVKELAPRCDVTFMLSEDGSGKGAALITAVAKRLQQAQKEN
Aspartyl aminopeptidase, sequence (Q8I2J3 whole entry): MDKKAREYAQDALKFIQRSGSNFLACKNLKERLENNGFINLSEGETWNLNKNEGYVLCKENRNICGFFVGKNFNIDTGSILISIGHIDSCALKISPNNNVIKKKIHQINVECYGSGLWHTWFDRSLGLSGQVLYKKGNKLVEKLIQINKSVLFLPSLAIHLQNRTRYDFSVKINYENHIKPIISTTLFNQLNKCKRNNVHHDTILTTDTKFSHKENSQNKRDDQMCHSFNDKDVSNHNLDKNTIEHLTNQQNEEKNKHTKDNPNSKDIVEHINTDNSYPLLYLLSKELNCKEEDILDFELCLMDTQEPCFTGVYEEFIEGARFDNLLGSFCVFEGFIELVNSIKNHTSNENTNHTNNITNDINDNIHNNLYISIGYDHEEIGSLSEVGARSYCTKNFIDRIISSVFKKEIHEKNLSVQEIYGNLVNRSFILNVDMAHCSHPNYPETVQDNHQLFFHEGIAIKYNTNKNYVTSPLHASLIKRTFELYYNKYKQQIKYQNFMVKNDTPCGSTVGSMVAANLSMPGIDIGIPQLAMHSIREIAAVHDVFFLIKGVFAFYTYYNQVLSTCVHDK
Large T antigen, sequence (P03070 whole entry): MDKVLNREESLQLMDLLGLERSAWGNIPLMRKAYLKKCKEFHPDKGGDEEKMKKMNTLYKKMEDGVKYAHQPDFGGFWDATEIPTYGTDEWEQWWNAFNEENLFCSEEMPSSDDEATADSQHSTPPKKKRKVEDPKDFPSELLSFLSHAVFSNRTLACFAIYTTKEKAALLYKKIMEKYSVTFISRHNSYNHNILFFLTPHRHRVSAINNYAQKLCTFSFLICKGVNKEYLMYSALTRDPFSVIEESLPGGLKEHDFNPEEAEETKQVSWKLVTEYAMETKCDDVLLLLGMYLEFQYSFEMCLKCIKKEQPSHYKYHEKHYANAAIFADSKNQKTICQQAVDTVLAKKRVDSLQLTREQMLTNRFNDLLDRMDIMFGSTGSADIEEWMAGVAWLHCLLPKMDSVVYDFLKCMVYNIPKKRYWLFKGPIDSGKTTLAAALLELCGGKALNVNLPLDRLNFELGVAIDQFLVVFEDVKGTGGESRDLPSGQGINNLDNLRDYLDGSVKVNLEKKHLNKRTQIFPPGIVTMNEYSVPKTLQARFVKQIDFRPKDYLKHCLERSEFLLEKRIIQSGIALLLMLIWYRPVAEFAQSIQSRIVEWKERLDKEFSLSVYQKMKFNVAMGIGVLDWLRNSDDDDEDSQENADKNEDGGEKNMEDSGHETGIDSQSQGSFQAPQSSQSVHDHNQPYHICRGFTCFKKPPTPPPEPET
Induced myeloid leukemia cell differentiation protein Mcl-1, sequence (Q07820 whole entry): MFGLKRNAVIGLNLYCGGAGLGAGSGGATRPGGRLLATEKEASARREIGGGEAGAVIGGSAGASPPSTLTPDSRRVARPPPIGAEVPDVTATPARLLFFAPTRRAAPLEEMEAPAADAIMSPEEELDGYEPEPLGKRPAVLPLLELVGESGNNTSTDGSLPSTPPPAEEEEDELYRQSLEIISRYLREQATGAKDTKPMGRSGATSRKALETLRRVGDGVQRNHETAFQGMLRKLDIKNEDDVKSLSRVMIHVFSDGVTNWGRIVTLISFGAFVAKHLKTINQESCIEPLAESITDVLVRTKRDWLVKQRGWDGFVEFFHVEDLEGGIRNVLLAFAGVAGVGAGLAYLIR
Procathepsin L, sequence (P07711 whole entry): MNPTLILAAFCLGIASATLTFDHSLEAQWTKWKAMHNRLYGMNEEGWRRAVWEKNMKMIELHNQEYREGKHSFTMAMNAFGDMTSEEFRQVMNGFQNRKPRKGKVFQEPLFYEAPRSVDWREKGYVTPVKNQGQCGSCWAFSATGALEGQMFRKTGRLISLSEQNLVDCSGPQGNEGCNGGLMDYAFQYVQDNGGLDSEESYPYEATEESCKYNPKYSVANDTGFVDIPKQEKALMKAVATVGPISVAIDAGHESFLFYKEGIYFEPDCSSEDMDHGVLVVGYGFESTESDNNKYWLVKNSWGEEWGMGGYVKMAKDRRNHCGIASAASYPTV
Bcl-2-like protein 1, sequence (Q07817 whole entry): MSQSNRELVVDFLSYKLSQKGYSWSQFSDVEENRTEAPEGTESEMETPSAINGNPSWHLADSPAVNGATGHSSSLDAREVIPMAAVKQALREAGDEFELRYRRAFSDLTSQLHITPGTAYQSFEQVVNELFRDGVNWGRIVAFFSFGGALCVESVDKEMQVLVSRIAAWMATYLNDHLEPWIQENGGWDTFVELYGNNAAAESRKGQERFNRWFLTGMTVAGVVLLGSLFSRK

SMILES: C=CCNC(=O)Nc1ccc(F)cc1F
- EC50 [1]: > 55.7 µM (not active)
- EC50 [2]: > 55.7 µM (not active)

SMILES: CCN(CC)c1ccc2c(c1)oc(=O)c1c(Cl)cc(=O)oc12
- AC50 [3]: 8.09 µM (active)
- IC50 [4]: > 64.6 µM (inactive)
- EC50 [5]: 12.1 µM (active)
- IC50 (Melanocortin receptor 4): > 64.6 µM (inactive)
- IC50 (Hexokinase HKDC1): 22.4 µM (inactive)
- CC50 [6]: > 40 µM (active)
- CC50 [7]: 11.7 µM (active)
- AC50 [8]: 2.22 µM (active)
- EC50 (Estrogen receptor): 14.6 µM (active)
- EC50 [9]: 14.2 µM (active)
- IC50 (cells): 14.6 µM (active)

SMILES: Oc1ccc(C2=Nn3c(nnc3-c3ccco3)SC2)cc1O
- IC50 [10]: > 50 µM (not active)
- IC50 (Aspartyl aminopeptidase): 1.84 µM (active)
- AC50 [11]: 4.01 µM (active)
- IC50 [12]: > 50 µM (not active)
- IC50 (Bcl-2-like protein 1): 68.7 µM (not active)
- IC50 (Procathepsin L): > 59.6 µM (not active)
- IC50 [13]: 6.16 µM (active)
- IC50 (Large T antigen): 3.26 µM (active)
- IC50 [14]: 12.2 µM (active)
- AC50 [15]: 6.4 µM (active)
